Data published in patent publication US20020065419A1, “Cyclobutenedione compounds” (priority 2000, published 2002).

Tests used:
[1] = test system: thoracic aorta rings of Wistar rat; assay: Vascular protective effects with respect to endothelial dysfunction caused by an inhibitor of NOS (LNA), aortic rings; conditions: compound at 10^-7 M, LNA 3x10^-7 M, relaxation due to ACh
Description: Under standard in vitro conditions, relaxation of aortic rings caused by acetylcholine (ACh), which relaxation is entirely dependent on the presence of endothelium, reflects the production of NO (stimulated by ACh), which, by diffusing to smooth muscle cells, brings about arterial relaxation (Nature, 1980, 288, 373).
the first model consists of causing inhibition of the relaxation due to ACh by blocking the enzymatic activity (endothelial NOS) responsible for the production of NO;
The thoracic aorta of a Wistar rat (325-375 g), anaesthetised by the intraperitoneal route using pentobarbital sodium (30 mg/kg), is removed and dissected into rings having a length of 3 mm. Each ring is suspended from an isometric tension sensor connected to a recording system and the initial tension applied is 2.5 g. […]
After a 90-minute stabilisation period, the preparations are contracted using phenylephrine (PHE 10^−6 M) and relaxed by adding 10^−5 M of acetylcholine in order to verify the integrity of the endothelial layer. […] The preparations are again contracted using phenylephrine and, after 30 minutes, the relaxations due to acetylcholine (ACh-10^−8 M to 10^−5 M) are assessed in the presence of indomethacin (10^−5 M).
The relaxation values are expressed as a percentage relative to the maximum contraction caused by PHE. […]

[2] = test system: aortic rings of New Zealand rabbits; assay: Protective vascular effects with respect to endothelial dysfunction caused by a system generating O2- (XO-Hypo), aortic rings; conditions: compound at 10^-7 M; XO 3 mU/ml, Hypo 10^-4 M; rabbit aortic rings
rat aortic rings = assay: Aortic production of cGMP stimulated by ACh in the presence of LNA; conditions: compound at 3x10 -M (so in the source), 30-minute incubation, ACh 10^-5 M 1 minute, LNA 3x10^-6 M
Procedure: By diffusing to the smooth muscle cells, the NO produced by the endothelial cells activates soluble guanylate cyclase, which brings about an increase in cyclic GMP, which is responsible for relaxation.
The rat aortic rings are prepared as previously. The effects of 30-minute incubation of compounds of the invention at different concentrations are assessed on the production of cGMP stimulated by ACh (10^−5 M—1 minute) in the presence of LNA (3×10^−6 M). The said experiments are carried out in the presence of isobutylmethylxanthine (10^−5 M) in order to avoid degradation of the cGMP by phosphodiesterases. The rings are frozen in liquid nitrogen and maintained at −80° C. until the assay is carried out. The cGMP content is assessed by radioimmunoassay and expressed in relation to the amount of proteins contained in the tissue (assay by the Bradford method).

O=c1c(NCCN2CCC(COc3ccccc3)CC2)c(N2CCc3ccccc32)c1=O [Example 5, 3-(2,3-Dihydro-1H-indol-1-yl)-4-({2-[4-(Phenoxymethyl)-1-piperidinyl]-ethyl}amino)-3-cyclobutene-1,2-dione and its methanesulphonate]
inhibition of the endothelial dysfunction caused by LNA [1]: 27%
inhibition of the endothelial dysfunction caused by the XO-Hypo combination [2]: 17%
increase of the production of cGMP stimulated by ACh in the presence of LNA (rat aortic rings): 39%
